In PubChem BioAssay (NCI):
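Grown in 96-well plates, cells were treated for 48 hours with each compound at five concentrations. Insufficient inhibition: endpoint recorded as highest concentration tested. The concentration for 50% growth inhibition is given as GI50. TGI is the concentration that stops growth completely.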

Tests used:
Assay in all cases: NCI anticancer screen, dose series, 48 h
786-0 renal = tested on: 786-0 renal
A549 NSCLC = tested on: A549 NSCLC
ACHN renal = tested on: ACHN renal
BT-549 breast = tested on: BT-549 breast
CAKI-1 renal = tested on: CAKI-1 renal
COLO 205 colon = tested on: COLO 205 colon
DU-145 prostate = tested on: DU-145 prostate
EKVX NSCLC = tested on: EKVX NSCLC
HCT-116 colon = tested on: HCT-116 colon
HCT-15 colon = tested on: HCT-15 colon
HL-60(TB) leukemia = tested on: HL-60(TB) leukemia
HOP-62 NSCLC = tested on: HOP-62 NSCLC
HOP-92 NSCLC = tested on: HOP-92 NSCLC
HS 578T breast = tested on: HS 578T breast
HT29 colon = tested on: HT29 colon
IGROV1 ovarian = tested on: IGROV1 ovarian
K-562 leukemia = tested on: K-562 leukemia
KM12 colon = tested on: KM12 colon
LOX IMVI melanoma = tested on: LOX IMVI melanoma
M14 melanoma = tested on: M14 melanoma
MCF7 breast = tested on: MCF7 breast
MDA-MB-435 = tested on: MDA-MB-435
MOLT-4 leukemia = tested on: MOLT-4 leukemia
NCI-H226 lung = tested on: NCI-H226 lung
NCI-H23 lung = tested on: NCI-H23 lung
NCI-H460 lung = tested on: NCI-H460 lung
NCI-H522 lung = tested on: NCI-H522 lung
NCI/ADR-RES ovarian = tested on: NCI/ADR-RES ovarian
OVCAR-3 ovarian = tested on: OVCAR-3 ovarian
OVCAR-4 ovarian = tested on: OVCAR-4 ovarian
OVCAR-5 ovarian = tested on: OVCAR-5 ovarian
OVCAR-8 ovarian = tested on: OVCAR-8 ovarian
PC-3 prostate = tested on: PC-3 prostate
RPMI-8226 leukemia = tested on: RPMI-8226 leukemia
RXF 393 renal = tested on: RXF 393 renal
SF-268 CNS = tested on: SF-268 CNS
SF-295 CNS = tested on: SF-295 CNS
SF-539 CNS = tested on: SF-539 CNS
SK-MEL-2 melanoma = tested on: SK-MEL-2 melanoma
SK-MEL-28 melanoma = tested on: SK-MEL-28 melanoma
SK-MEL-5 melanoma = tested on: SK-MEL-5 melanoma
SK-OV-3 ovarian = tested on: SK-OV-3 ovarian
SN12C renal = tested on: SN12C renal
SNB-19 CNS = tested on: SNB-19 CNS
SNB-75 CNS = tested on: SNB-75 CNS
SR leukemia = tested on: SR leukemia
SW-620 colon = tested on: SW-620 colon
T-47D breast = tested on: T-47D breast
TK-10 renal = tested on: TK-10 renal
U251 CNS = tested on: U251 CNS
UACC-257 melanoma = tested on: UACC-257 melanoma
UACC-62 melanoma = tested on: UACC-62 melanoma
UO-31 renal = tested on: UO-31 renal

## CCOC(=O)[C@H]1O[C@@H]1C(=O)N[C@@H](CC(C)C)C(=O)NCCc1ccc(O)cc1
786-0 renal
  GI50: > 100 µM
  TGI: > 100 µM
A549 NSCLC
  GI50: > 100 µM
  TGI: > 100 µM
ACHN renal
  GI50: > 100 µM
  TGI: > 100 µM
BT-549 breast
  GI50: > 100 µM
  TGI: > 100 µM
CAKI-1 renal
  GI50: > 100 µM
  TGI: > 100 µM
COLO 205 colon
  GI50: > 100 µM
  TGI: > 100 µM
DU-145 prostate
  GI50: > 100 µM
  TGI: > 100 µM
EKVX NSCLC
  GI50: > 100 µM
  TGI: > 100 µM
HCT-116 colon
  GI50: > 100 µM
  TGI: > 100 µM
HCT-15 colon
  GI50: > 100 µM
  TGI: > 100 µM
HL-60(TB) leukemia
  GI50: > 100 µM
  TGI: > 100 µM
HOP-62 NSCLC
  GI50: > 100 µM
  TGI: > 100 µM
HOP-92 NSCLC
  GI50: > 100 µM
  TGI: > 100 µM
HS 578T breast
  GI50: > 100 µM
  TGI: > 100 µM
HT29 colon
  GI50: > 100 µM
  TGI: > 100 µM
IGROV1 ovarian
  GI50: > 100 µM
  TGI: > 100 µM
K-562 leukemia
  GI50: 48.4 µM
  TGI: > 100 µM
KM12 colon
  GI50: > 100 µM
  TGI: > 100 µM
LOX IMVI melanoma
  GI50: > 100 µM
  TGI: > 100 µM
M14 melanoma
  GI50: > 100 µM
  TGI: > 100 µM
MCF7 breast
  GI50: > 100 µM
  TGI: > 100 µM
MDA-MB-435
  GI50: > 100 µM
  TGI: > 100 µM
MOLT-4 leukemia
  GI50: > 100 µM
  TGI: > 100 µM
NCI-H226 lung
  GI50: > 100 µM
  TGI: > 100 µM
NCI-H23 lung
  GI50: > 100 µM
  TGI: > 100 µM
NCI-H460 lung
  GI50: > 100 µM
  TGI: > 100 µM
NCI-H522 lung
  GI50: > 100 µM
  TGI: > 100 µM
NCI/ADR-RES ovarian
  GI50: > 100 µM
  TGI: > 100 µM
OVCAR-3 ovarian
  GI50: > 100 µM
  TGI: > 100 µM
OVCAR-4 ovarian
  GI50: > 100 µM
  TGI: > 100 µM
OVCAR-5 ovarian
  GI50: > 100 µM
  TGI: > 100 µM
OVCAR-8 ovarian
  GI50: > 100 µM
  TGI: > 100 µM
PC-3 prostate
  GI50: > 100 µM
  TGI: > 100 µM
RPMI-8226 leukemia
  GI50: > 100 µM
  TGI: > 100 µM
RXF 393 renal
  GI50: > 100 µM
  TGI: > 100 µM
SF-268 CNS
  GI50: > 100 µM
  TGI: > 100 µM
SF-295 CNS
  GI50: > 100 µM
  TGI: > 100 µM
SF-539 CNS
  GI50: > 100 µM
  TGI: > 100 µM
SK-MEL-2 melanoma
  GI50: > 100 µM
  TGI: > 100 µM
SK-MEL-28 melanoma
  GI50: > 100 µM
  TGI: > 100 µM
SK-MEL-5 melanoma
  GI50: > 100 µM
  TGI: > 100 µM
SK-OV-3 ovarian
  GI50: > 100 µM
  TGI: > 100 µM
SN12C renal
  GI50: > 100 µM
  TGI: > 100 µM
SNB-19 CNS
  GI50: > 100 µM
  TGI: > 100 µM
SNB-75 CNS
  GI50: > 100 µM
  TGI: > 100 µM
SR leukemia
  GI50: 41 µM
  TGI: > 100 µM
SW-620 colon
  GI50: > 100 µM
  TGI: > 100 µM
T-47D breast
  GI50: > 100 µM
  TGI: > 100 µM
TK-10 renal
  GI50: > 100 µM
  TGI: > 100 µM
U251 CNS
  GI50: > 100 µM
  TGI: > 100 µM
UACC-257 melanoma
  GI50: > 100 µM
  TGI: > 100 µM
UACC-62 melanoma
  GI50: > 100 µM
  TGI: > 100 µM
UO-31 renal
  GI50: > 100 µM
  TGI: > 100 µM
